Measured values taken from PubChem BioAssay (NCI).
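A five-concentration, 48-hour dose response in 96-well plates underlies each endpoint, interpolated linearly between surrounding concentrations. GI50 marks 50% less growth. Definition used: TGI = concentration required for complete inhibition of growth.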

Legend:
Assay in all cases: DTP human tumour cell line panel, 48 h
MOLT-4 leukemia = tested on: MOLT-4 leukemia
TK-10 renal = tested on: TK-10 renal
SN12C renal = tested on: SN12C renal
SK-MEL-28 melanoma = tested on: SK-MEL-28 melanoma
SF-539 CNS = tested on: SF-539 CNS
UACC-62 melanoma = tested on: UACC-62 melanoma
HT29 colon = tested on: HT29 colon
CAKI-1 renal = tested on: CAKI-1 renal
A498 renal = tested on: A498 renal
PC-3 prostate = tested on: PC-3 prostate

CC(=O)NNc1nc(C)c(C(=O)NNC(=O)C(=O)Nc2ccc(Cl)cc2)s1
TGI (MOLT-4 leukemia): > 100 µM
TGI (TK-10 renal): > 100 µM
TGI (SN12C renal): > 100 µM
TGI (SK-MEL-28 melanoma): > 100 µM
TGI (SF-539 CNS): > 100 µM
TGI (UACC-62 melanoma): > 100 µM
TGI (HT29 colon): > 100 µM

C=C1C(=O)C23CC1CCC2C12CO[C@@H]4OCC(C)(CC[C@@H]1OC3=O)C42 (stereo partly specified)
TGI (MOLT-4 leukemia): 9.7 µM
TGI (CAKI-1 renal): 5.33 µM
TGI (TK-10 renal): 13.8 µM
TGI (SN12C renal): 21.3 µM
TGI (SK-MEL-28 melanoma): 4.41 µM
TGI (SF-539 CNS): 14.8 µM
TGI (UACC-62 melanoma): 17.3 µM
TGI (A498 renal): 34.8 µM
TGI (HT29 colon): 10.3 µM

CCCCCCCCCCCCCCCCCC(CCCCCCCCCCCCCCCCC)OP(=O)(O)O
TGI (MOLT-4 leukemia): > 100 µM
TGI (CAKI-1 renal): > 100 µM
TGI (TK-10 renal): > 100 µM
TGI (SN12C renal): > 100 µM
TGI (SK-MEL-28 melanoma): > 100 µM
TGI (UACC-62 melanoma): > 100 µM
TGI (A498 renal): > 100 µM
TGI (HT29 colon): > 100 µM

O=S1(=O)c2ccccc2NC(c2ccc3ccccc3c2)CC1c1ccccc1F (stereo unspecified)
TGI (MOLT-4 leukemia): > 100 µM
TGI (CAKI-1 renal): > 100 µM
TGI (TK-10 renal): > 100 µM
TGI (SN12C renal): > 100 µM
TGI (SK-MEL-28 melanoma): > 100 µM
TGI (SF-539 CNS): > 100 µM
TGI (UACC-62 melanoma): > 100 µM
TGI (A498 renal): > 100 µM
TGI (HT29 colon): > 100 µM

O=C1C(=O)N(c2ccc(Cl)cc2Cl)C(=O)C(=O)C1c1nc2ccccc2s1
TGI (MOLT-4 leukemia): > 89.2 µM
TGI (CAKI-1 renal): > 100 µM
TGI (TK-10 renal): > 100 µM
TGI (SN12C renal): > 100 µM
TGI (SK-MEL-28 melanoma): > 100 µM
TGI (SF-539 CNS): > 100 µM
TGI (UACC-62 melanoma): > 100 µM
TGI (A498 renal): > 100 µM
TGI (HT29 colon): > 100 µM

COc1cc(CNc2cnc3cc(N)cc(N)c3n2)cc(OC)c1
GI50 (MOLT-4 leukemia): 36.9 µM
TGI (MOLT-4 leukemia): > 100 µM
GI50 (CAKI-1 renal): 24.8 µM
TGI (CAKI-1 renal): 52.3 µM
GI50 (TK-10 renal): 18.4 µM
TGI (TK-10 renal): 57.6 µM
GI50 (SN12C renal): 15.2 µM
TGI (SN12C renal): 33.3 µM
GI50 (SF-539 CNS): 23.2 µM
TGI (SF-539 CNS): 46.9 µM
GI50 (PC-3 prostate): 15.1 µM
TGI (PC-3 prostate): 35.2 µM

O=C1/C(=C/c2ccccc2)CN(C(=O)C(Cl)(Cl)Cl)C/C1=C\c1ccccc1
TGI (MOLT-4 leukemia): 5.77 µM
TGI (TK-10 renal): 8.72 µM
TGI (SN12C renal): 3.12 µM
TGI (SK-MEL-28 melanoma): 3.33 µM
TGI (SF-539 CNS): 9.91 µM
TGI (UACC-62 melanoma): 3.43 µM
TGI (A498 renal): 13.7 µM
TGI (HT29 colon): 2.75 µM

CCOC(=O)CN1C(=O)c2cccc3cc([N+](=O)[O-])cc(c23)C1=O
TGI (MOLT-4 leukemia): 2.45 µM
TGI (TK-10 renal): 30.7 µM
TGI (SN12C renal): 17.2 µM
TGI (SK-MEL-28 melanoma): 7.39 µM
TGI (SF-539 CNS): 16 µM
TGI (UACC-62 melanoma): 5.2 µM
TGI (A498 renal): 30.6 µM
TGI (HT29 colon): 25.4 µM

COc1cc2c(cc1OC)-c1c3cc(O)ccc3nn[n+]1CC2
TGI (MOLT-4 leukemia): > 100 µM
TGI (TK-10 renal): > 100 µM
TGI (SN12C renal): > 100 µM
TGI (SK-MEL-28 melanoma): > 100 µM
TGI (SF-539 CNS): > 100 µM
TGI (UACC-62 melanoma): > 100 µM
TGI (HT29 colon): > 100 µM

CCCCOC(=O)C1OC(O[C@H]2CCC3(C)C(CCC4(C)C3CC=C3C5CC(C)(C)CCC5(C(=O)O)CC[C@]34C)C2(C)C)C(OC2OC(CO)C(O)C(O)C2O)C(OC2OC(CO)C(O)C(O)C2O)C1O (stereo partly specified)
GI50 (MOLT-4 leukemia): 7.77 µM
TGI (MOLT-4 leukemia): 36.4 µM
GI50 (CAKI-1 renal): 33.4 µM
TGI (CAKI-1 renal): 95.4 µM
GI50 (TK-10 renal): 33.3 µM
TGI (TK-10 renal): > 100 µM
GI50 (SN12C renal): 21.8 µM
TGI (SN12C renal): 40 µM
GI50 (SK-MEL-28 melanoma): 26.7 µM
TGI (SK-MEL-28 melanoma): 52.2 µM
GI50 (UACC-62 melanoma): 20.9 µM
TGI (UACC-62 melanoma): 36.1 µM
GI50 (HT29 colon): 34.2 µM
TGI (HT29 colon): > 100 µM
GI50 (PC-3 prostate): 34.7 µM
TGI (PC-3 prostate): > 100 µM

COC1(OC)CCC2C1C1CCC(OC)(OC)C21 (stereo unspecified)
TGI (MOLT-4 leukemia): > 50 µM
TGI (CAKI-1 renal): > 50 µM
TGI (SN12C renal): > 50 µM
TGI (SK-MEL-28 melanoma): > 50 µM
TGI (SF-539 CNS): > 50 µM
TGI (UACC-62 melanoma): > 50 µM
TGI (A498 renal): > 50 µM
TGI (HT29 colon): > 50 µM
